Laboratory results reported in the Kinase Knowledgebase extract (Sharma et al. 2016).

Target: CDK2 (human) (UniProt P24941)
Assay: Enzyme Assay

| IC50 [µM] | Compound |
| --- | --- |
| ≥ 40 | O=C(NC[C@@H]1CCNC1)c1ccc(C(=O)Nc2ccc(-n3cncn3)cc2)s1 |
| ≥ 40 | Nc1ccc(CNC(=O)c2ccc(C(=O)Nc3ccc(-n4cncn4)cc3)s2)cn1 |
| 1 to 40 | O=C(Nc1ccc(-n2cncn2)c(F)c1)c1ccc(C(=O)Nc2ccccc2C(F)(F)F)s1 |
| ≥ 40 | Cn1c(NC(=O)c2ccc(C(=O)Nc3ccc(-n4cncn4)cc3)s2)nc2ccccc21 |
| ≥ 40 | O=C(Nc1ccc(-n2cncn2)cc1)c1ccc(C(=O)Nc2cccc(O)c2)s1 |
| ≥ 40 | O=C(Nc1ccc(-n2cncn2)cc1)c1ccc(C(=O)N2CCOCC2)s1 |
| ≥ 40 | COc1ccc(NC(=O)c2ccc(C(=O)Nc3ccc(-c4nnn[nH]4)cc3)s2)c(C)c1 |
| 1 to 40 | C[C@@H](NC(=O)c1ccc(C(=O)Nc2ccc(-n3cncn3)c(F)c2)o1)C1CCCCC1 |
| ≥ 40 | CN(Cc1ccccc1)C(=O)c1ccc(C(=O)Nc2ccc(-n3cncn3)cc2)s1 |
| 1 to 40 | COc1ccc(NC(=O)c2ccc(C(=O)Nc3ccc(F)cc3-n3cncn3)s2)c(C)c1 |
| ≥ 40 | NS(=O)(=O)c1ccc(NC(=O)c2ccc(C(=O)Nc3ccc(-n4cncn4)cc3)s2)cc1 |
| ≥ 40 | COc1ccc(NC(=O)c2ccc(C(=O)Nc3ccc(-n4cncn4)cc3)s2)cc1F |
| ≥ 40 | O=C(Nc1ccc(-n2cncn2)c(F)c1)c1ccc(C(=O)Nc2ccccc2Oc2ccccc2)s1 |
| ≥ 40 | O=C(Nc1ccc(-n2cncn2)cc1)c1ccc(C(=O)N2CCCC2c2cccnc2)s1 (stereo not drawn) |
| ≤ 1 | COc1ccc(NC(=O)c2ccc(C(=O)Nc3ccc(-n4cncn4)cc3)o2)cc1 |
| 1 to 40 | COc1ccc(NC(=O)c2ccc(C(=O)N3CCC(Oc4cnccn4)CC3)s2)c(C)c1 |
| ≥ 40 | COc1ccc(NC(=O)c2ccc(C(=O)Nc3ccc(-c4c(C)noc4C)cc3)s2)c(C)c1 |
| ≤ 1 | Cc1cc(OCCO)ccc1NC(=O)c1ccc(C(=O)Nc2ccc(-n3cncn3)cc2)s1 |
| ≤ 1 | O=C(Nc1ccc(-n2cncn2)cc1)c1ccc(C(=O)NC2CCCCC2)o1 |
| ≥ 40 | COc1ccc(C(=O)Nc2ccc(C(=O)N3CCC(c4ccccn4)C3)s2)c(C)c1 (stereo not drawn) |
| ≥ 40 | O=C(NCCc1ccccc1)c1ccc(C(=O)Nc2ccc(-n3cncn3)cc2)s1 |
| 1 to 40 | O=C(NCCN1CCCC1)c1ccc(C(=O)Nc2ccc(-n3cncn3)cc2)s1 |
| ≥ 40 | Cn1nc(-c2cccs2)cc1NC(=O)c1ccc(C(=O)Nc2ccc(-n3cncn3)cc2)s1 |
| 1 to 40 | COc1ccc(N(C)C(=O)c2ccc(C(=O)Nc3ccc(-n4cncn4)cc3)s2)cc1 |
| ≥ 40 | COc1ccc(NC(=O)c2ccc(C(=O)Nc3ccc4scnc4c3)s2)c(C)c1 |

| IC50 [µM] | Compound |
| --- | --- |
| ≤ 1 | Cc1cc(N2CCOCC2)ccc1NC(=O)c1ccc(C(=O)Nc2ccc(-n3cncn3)c(F)c2)s1 |
| 1 to 40 | Cc1cc(NCCN(C)C)ccc1NC(=O)c1ccc(C(=O)Nc2ccc(-n3cncn3)cc2)s1 |
| ≥ 40 | C[C@H](O)CNC(=O)c1ccc(C(=O)Nc2ccc(-n3cncn3)cc2)s1 |
| ≥ 40 | COc1ccc(NC(=O)c2ccc(C(=O)Nc3ccc4c(c3)OCO4)s2)c(C)c1 |
| 1 to 40 | O=C(Nc1ccc(-n2cncn2)cc1)c1ccc(C(=O)N[C@H]2CCc3ccccc32)s1 |
| ≥ 40 | COc1ccc(NC(=O)c2ccc(C(=O)Nc3ccc(C(N)=O)cc3)s2)c(C)c1 |
| ≥ 40 | CN1CCC(N(C)C(=O)c2ccc(C(=O)Nc3ccc(-n4cncn4)c(F)c3)o2)CC1 |
| ≥ 40 | CN(C(=O)c1ccc(C(=O)Nc2ccc(-n3cncn3)c(F)c2)o1)C1CCCCC1 |
| ≥ 40 | CN1CCN(C(=O)c2ccc(C(=O)Nc3ccc(-n4cncn4)cc3)s2)CC1 |
| ≥ 40 | O=C(NCCN1CCOCC1)c1ccc(C(=O)Nc2ccc(-n3cncn3)cc2)s1 |
| ≥ 40 | CN(C(=O)c1ccc(C(=O)Nc2ccc(-n3cncn3)cc2)s1)c1ccccc1 |
| ≤ 1 | O=C(Nc1ccc(-n2cncn2)c(F)c1)c1ccc(C(=O)Nc2ccccc2F)s1 |
| 1 to 40 | Cn1nc(C2CC2)cc1NC(=O)c1ccc(C(=O)Nc2ccc(-n3cncn3)cc2)s1 |
| ≥ 40 | Cc1cc(C)nc(NC(=O)c2ccc(C(=O)Nc3ccc(-n4cncn4)cc3)s2)c1 |
| 1 to 40 | COc1ccc(C(=O)Nc2ccc(C(=O)N3CCC(Oc4cnccn4)CC3)s2)c(C)c1 |
| ≤ 1 | Cc1cc(N[C@H]2CCNC2)ccc1NC(=O)c1ccc(C(=O)Nc2ccc(-n3cncn3)c(F)c2)s1 |
| ≥ 40 | O=C(Nc1ccc(-n2cncn2)c(F)c1)c1ccc(C(=O)Nc2ccccc2-n2cccn2)s1 |
| ≥ 40 | COc1ccc(NC(=O)c2ccc(C(=O)Nc3ccc(CN)cc3)s2)c(C)c1 |
| ≥ 40 | CN(Cc1ccco1)C(=O)c1ccc(C(=O)Nc2ccc(-n3cncn3)cc2)s1 |
| ≥ 40 | O=C(NC[C@H]1CCCO1)c1ccc(C(=O)Nc2ccc(-n3cncn3)cc2)s1 |
| ≥ 40 | COc1ccc(NC(=O)c2ccc(C(=O)Nc3ccc(N4CCOCC4)nc3)s2)c(C)c1 |
| ≤ 1 | COc1ccc(C(=O)Nc2ccc(C(=O)Nc3ccc(-n4cncn4)c(F)c3)s2)c(C)c1 |
| 1 to 40 | O=C(Nc1ccc(-n2cncn2)cc1)c1ccc(C(=O)NC2CCCC2)s1 |
| ≤ 1 | Cc1cc(N(C)CCN(C)C)ccc1NC(=O)c1ccc(C(=O)Nc2ccc(-n3cncn3)cc2)s1 |
| ≥ 40 | CN(C)CCCNC(=O)c1ccc(C(=O)Nc2ccc(-n3cncn3)cc2)s1 |

| IC50 [µM] | Compound |
| --- | --- |
| ≥ 40 | COc1ccc(C(=O)Nc2ccc(C(=O)Nc3ccc(-n4cncn4)cc3)o2)c(C)c1 |
| ≥ 40 | Cc1cc(NC(=O)c2ccc(C(=O)Nc3ccc(-n4cncn4)cc3)s2)ccc1F |
| ≤ 1 | COc1ccc(C(=O)Nc2ccc(C(=O)Nc3ccc(-n4cncn4)cc3)s2)c(C)c1 |
| 1 to 40 | O=C(NCCc1cccnc1)c1ccc(C(=O)Nc2ccc(-n3cncn3)cc2)s1 |
| ≥ 40 | CN(C)CCNC(=O)c1ccc(C(=O)Nc2ccc(-n3cncn3)c(F)c2)o1 |
| ≥ 40 | COc1ccc(C(=O)Nc2ccc(C(=O)Nc3ccc(-n4cncn4)cc3)o2)cc1 |
| 1 to 40 | CNCc1ccc(NC(=O)c2ccc(C(=O)Nc3ccc(-n4cncn4)cc3)s2)c(C)c1 |
| ≥ 40 | O=C(Nc1ccc(-n2cncn2)cc1)c1ccc(C(=O)N2CCN(C3CCCC3)CC2)s1 |
| 1 to 40 | COc1ccc(N(C)C(=O)c2ccc(C(=O)Nc3ccc(-n4cncn4)cc3)s2)c(C)c1 |
| ≥ 40 | COc1ccc(NC(=O)c2ccc(C(=O)Nc3ccc(-c4csnn4)cc3)s2)c(C)c1 |
| 1 to 40 | COc1cccc(NC(=O)c2ccc(C(=O)Nc3ccc(-n4cncn4)cc3)s2)c1OC |
| 1 to 40 | COc1ccc(Cl)cc1NC(=O)c1ccc(C(=O)Nc2ccc(-n3cncn3)cc2)s1 |
| ≥ 40 | O=C(Nc1ccc(-n2cncn2)cc1)c1ccc(C(=O)NC2CCCCC2)s1 |
| ≥ 40 | O=C(Nc1ccc(-n2cncn2)cc1)c1ccc(C(=O)N[C@@H]2CC3CCC2C3)s1 (stereo partly drawn) |
| ≤ 1 | Cc1cc(Cn2ccnc2)ccc1NC(=O)c1ccc(C(=O)Nc2ccc(-n3cncn3)cc2)s1 |
| ≥ 40 | O=C(NCc1ccc2c(c1)CCO2)c1ccc(C(=O)Nc2ccc(-n3cncn3)cc2)s1 |
| 1 to 40 | Cc1ccsc1CNC(=O)c1ccc(C(=O)Nc2ccc(-n3cncn3)cc2)s1 |
| ≥ 40 | C[C@@H](NC(=O)c1ccc(C(=O)Nc2ccc(-n3cncn3)cc2)s1)C1CCCCC1 |
| ≥ 40 | Cn1nc(-c2ccc(Cl)cc2)cc1NC(=O)c1ccc(C(=O)Nc2ccc(-n3cncn3)cc2)s1 |
| ≥ 40 | O=C(Nc1ccc(-n2cncn2)cc1)c1ccc(C(=O)Nc2nccs2)s1 |
| ≥ 40 | CN(C)C(=O)c1ccc(C(=O)Nc2ccc(-n3cncn3)c(F)c2)o1 |
| ≥ 40 | O=C(Nc1ccc(-n2cncn2)cc1)c1ccc(C(=O)Nc2cccc(-c3cnco3)c2)s1 |
| ≥ 40 | COc1ccc(NC(=O)c2ccc(C(=O)Nc3ccc(N4CCOCC4)cc3)s2)c(C)c1 |
| ≥ 40 | O=C(Nc1ccc(-n2cncn2)c(F)c1)c1ccc(C(=O)Nc2ccccc2OCc2ccccc2)s1 |
| ≥ 40 | COc1ccc(NC(=O)c2ccc(C(=O)Nc3ccc(-n4cncn4)cc3F)s2)c(C)c1 |

| IC50 [µM] | Compound |
| --- | --- |
| 1 to 40 | COc1ccc(C(=O)Nc2ccc(C(=O)Nc3ccc(-n4cncn4)cc3)s2)cc1 |
| 1 to 40 | O=C(Nc1ccc(-n2cncn2)c(F)c1)c1ccc(C(=O)N[C@H]2CC[C@H](O)CC2)o1 |
| ≥ 40 | CCOc1ccccc1NC(=O)c1ccc(C(=O)Nc2ccc(-n3cncn3)c(F)c2)s1 |
| ≥ 40 | O=C(Nc1ccc(-n2cncn2)c(F)c1)c1ccc(C(=O)Nc2ccccc2COc2ccccc2)s1 |
| ≤ 1 | Cc1cc(Cn2ccnc2)ccc1NC(=O)c1ccc(C(=O)Nc2ccc(-n3cncn3)c(F)c2)s1 |
| ≥ 40 | O=C(NCc1ccccn1)c1ccc(C(=O)Nc2ccc(-n3cncn3)cc2)s1 |
| 1 to 40 | O=C(Nc1ccc(-n2cncn2)cc1)c1ccc(C(=O)Nc2nc3ccccc3s2)s1 |
| ≤ 1 | Cc1cc(O)ccc1NC(=O)c1ccc(C(=O)Nc2ccc(-n3cncn3)cc2)s1 |
| 1 to 40 | O=C(NCc1ccccc1)c1ccc(C(=O)Nc2ccc(-n3cncn3)cc2)s1 |
| ≤ 1 | Cc1cc(OCCN2CCOCC2)ccc1NC(=O)c1ccc(C(=O)Nc2ccc(-n3cncn3)cc2)s1 |
| 1 to 40 | Cc1cc(NC(=O)c2ccc(C(=O)Nc3ccc(-n4cncn4)cc3)s2)n(C)n1 |
| ≤ 1 | O=C(Nc1ccc(C(=O)Nc2ccc(-n3cncn3)cc2)s1)c1ccccc1 |
| ≤ 1 | O=C(Nc1ccc(-n2cncn2)c(F)c1)c1ccc(C(=O)Nc2ccccc2Cl)s1 |
| ≥ 40 | COc1ccc(NC(=O)c2ccc(C(=O)Nc3ccc4sc(SC)nc4c3)s2)c(C)c1 |
| ≥ 40 | O=C(Nc1ccc(-n2cncn2)cc1)c1ccc(C(=O)Nc2ccc3ncsc3c2)s1 |
| ≤ 1 | Cc1cc(CN2CCOCC2)ccc1NC(=O)c1ccc(C(=O)Nc2ccc(-n3cncn3)c(F)c2)s1 |
| 1 to 40 | COc1ccc(NC(=O)c2ccc(C(=O)N3CCC(c4ccncc4)C3)s2)c(C)c1 (stereo not drawn) |
| ≥ 40 | COc1ccc(NC(=O)c2ccc(C(=O)Nc3ccc(-n4cncn4)cc3)s2)cc1O |
| ≤ 1 | COc1ccc(NC(=O)c2ccc(C(=O)Nc3ccc(-c4nnc[nH]4)cc3)s2)c(C)c1 |
| ≥ 40 | CC(C)CNC(=O)c1ccc(C(=O)Nc2ccc(-n3cncn3)cc2)s1 |
| ≥ 40 | COc1ccc(NC(=O)c2ccc(C(=O)Nc3ccc(N4CCN(C)CC4)cc3)s2)c(C)c1 |
| 1 to 40 | COc1ccc(NC(=O)c2ccc(C(=O)N3CCC(c4ccccn4)C3)s2)c(C)c1 (stereo not drawn) |
| 1 to 40 | CNCc1ccc(NC(=O)c2ccc(C(=O)Nc3ccc(-n4cncn4)c(F)c3)s2)c(C)c1 |
